Source: ChEMBL document CHEMBL3217628, “Benzisothiazolones arrest the cell cycle at the G2/M phase and induce apoptosis in HeLa cells” (Medchemcomm, 2013)
pIC50: −log10 of the molar value. The source made the active and inactive calls. The rule behind the calls is not given here.

Columns and labels:
[1] = Solubility of the compound in DMSO; format: physicochemical
SW480 = test: Cytotoxicity against human SW480 cells after 72 hrs by MTT assay; format: functional, cell-based; settings: SW480, 72 h
SiHa = test: Cytotoxicity against human SiHa cells after 72 hrs by MTT assay; format: functional, cell-based
HeLa [2] = test: Cell cycle arrest in human HeLa cells assessed as apoptotic cells at 50 uM after 48 hrs using propidium iodide staining by flow cytometry (reference value: 7.3%); format: functional
HeLa [3] = test: Cytotoxicity against human HeLa cells after 72 hrs by MTT assay; format: functional, cell-based
HeLa [4] = test: Cell cycle arrest in human HeLa cells assessed as accumulation at G2/M phase at 50 uM after 48 hrs using propidium iodide staining by flow cytometry (reference value: 14.3%); format: functional
HeLa [5] = test: Induction of apoptosis in human HeLa cells assessed as formation of DNA fragmentation at 50 uM after 72 hrs using ethidium bromide staining by 2% agarose gel electrophoresis assay; format: functional, cell-based
HeLa [6] = test: Induction of apoptosis in human HeLa cells assessed as disruption of mitochondrial membrane potential at 50 uM after 72 hrs using JC1 dye by fluorescence microscope analysis; format: functional, cell-based
HeLa [7] = test: Induction of apoptosis in human HeLa cells assessed as cleaved caspase-3 level at […] after 48 hrs by Western blot analysis; format: functional, cell-based
HeLa [8] = test: Induction of apoptosis in human HeLa cells assessed as disruption of mitochondrial membrane potential at […] after 72 hrs using JC1 dye by fluorescence microscope analysis; format: functional, cell-based

| Structure (SMILES) | solubility [1] | pIC50 (SW480) | pIC50 (SiHa) | pIC50 (HeLa [3]) | also measured |
| --- | --- | --- | --- | --- | --- |
| COc1ccc(-n2sc3ccccc3c2=O)cc1 | soluble |  |  |  |  |
| O=c1c2ccccc2sn1C1CCCCC1 |  | 4.31 | 4.32 | 4.61 | Activity (HeLa [2]): 23.4%; Activity (HeLa [4]): 26.6%; Activity (HeLa [5]): Active; Activity (HeLa [6]): Active |
| C[C@H](c1ccccc1)n1sc2ccccc2c1=O |  | 4.37 | 4.49 | 4.36 |  |
| O=c1c2ccccc2sn1-c1ccccc1 | soluble |  |  |  |  |
| CC(C)Cn1sc2ccccc2c1=O |  | 4.32 | 4.42 | 4.50 |  |
| O=c1c2ccccc2sn1Cc1ccc2c(c1)OCO2 |  | 4.33 | 4.53 | 4.43 |  |
| O=c1c2ccccc2sn1-c1ccccc1[N+](=O)[O-] | soluble |  |  |  |  |
| COc1ccccc1-n1sc2ccccc2c1=O | soluble |  |  |  |  |
| O=C(c1ccccc1)c1cc(Cl)ccc1-n1sc2ccccc2c1=O | soluble |  |  |  |  |
| C[C@@H](c1ccccc1)n1sc2ccccc2c1=O |  | 4.38 | 4.44 | 4.51 |  |
| CC(=O)O[C@H]1C(=O)[C@@]2(C)[C@H]([C@H](OC(=O)c3ccccc3)[C@]3(O)C[C@H](OC(=O)[C@H](O)[C@@H](NC(=O)c4ccccc4)c4ccccc4)C(C)=C1C3(C)C)[C@]1(OC(C)=O)CO[C@@H]1C[C@@H]2O |  |  |  |  | Activity (HeLa [7]): Active; Activity (HeLa [8]): Active |
| Cc1ccc(-n2sc3ccccc3c2=O)cc1 | soluble |  |  |  |  |
